Experimental data as given in ChEMBL document CHEMBL1201862, “PubChem BioAssay data set” (2004).
Active and inactive are the calls of the source.

Tests used:
[1] = biological target: Cytochrome P450 3A4 (Homo sapiens, UniProt P08684);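 also: CYP3A4 tested as one member of a cytochrome P450 panel screen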
[2] = biological target: Cytochrome P450 2C9 (Homo sapiens, UniProt P11712)
[3] = inhibitors of firefly luciferase expression or activity, dose response, H4 neuroglioma cells, luminescence (AID 1990); format: functional, cell-based
[4] = Luminescence Cell-Based Dose Response HTS to Identify Inhibitors of 5'UTR Stem-Loop Driven Prion Protein mRNA Translation in H4 Neuroglioblastoma Cells. [Related pubchem assays: 1827 (Project Summary), 1813 (Primary HTS)]; format: functional
[5] = inhibitors of SNCA 5'UTR-driven reporter translation, confirmation, H4 neuroglioma cells, luminescence (AID 1988); format: functional, cell-based
[6] = HEp-2 cell cytotoxicity, dose response, cytotoxicity control for RSV inhibitor project, HTS (AID 2410); format: functional; conditions: human respiratory syncytial virus
[7] = system: H9c2; assay: cells; format: functional, cell-based; conditions: Rattus norvegicus, H9c2, Myocardium;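 also: confirmatory concentration-response retest of ultra-high-throughput screening hits for modulation of myocardial damage; cell death induced by hydrogen peroxide oxidative stress; compound pretreatment for 60 min then peroxide exposure for 2 h; potency is for protecting the cells against peroxide damage rather than for killing them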
[8] = biological target: T1, Heat shock factor protein 1 (Mus musculus, UniProt P38532); assay: HSF1 potentiators in luciferase reporter cells, confirmation, cell-based, NIH3T3, luminescence, dose retest (AID 435004); format: functional;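 also: stress induced by proteasome inhibitor MG132 added 30 min after compound; luciferase reporter driven by HSF1 response element in NIH3T3 cells; actives raise luminescence as potentiators of the MG132 stress response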
T1 sequence (P38532 whole entry): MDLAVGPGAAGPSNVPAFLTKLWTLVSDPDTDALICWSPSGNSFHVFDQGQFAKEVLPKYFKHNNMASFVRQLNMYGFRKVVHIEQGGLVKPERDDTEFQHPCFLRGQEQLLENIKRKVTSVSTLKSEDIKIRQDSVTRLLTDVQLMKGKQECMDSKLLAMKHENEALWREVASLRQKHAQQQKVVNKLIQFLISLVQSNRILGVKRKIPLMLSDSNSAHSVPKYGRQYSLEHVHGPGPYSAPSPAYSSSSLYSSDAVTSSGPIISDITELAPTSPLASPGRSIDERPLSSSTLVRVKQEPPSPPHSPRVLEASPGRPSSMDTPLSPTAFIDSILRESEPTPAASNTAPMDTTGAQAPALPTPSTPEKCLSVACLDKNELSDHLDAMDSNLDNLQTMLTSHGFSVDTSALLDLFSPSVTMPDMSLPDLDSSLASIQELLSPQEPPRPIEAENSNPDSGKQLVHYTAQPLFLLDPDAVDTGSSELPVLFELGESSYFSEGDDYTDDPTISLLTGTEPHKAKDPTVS

[9] = biological target: Cytochrome P450 2D6 (Homo sapiens, UniProt P10635);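 also: CYP2D6 member of a cytochrome P450 panel assay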
Sequence of Cytochrome P450 2D6 (P10635 whole entry): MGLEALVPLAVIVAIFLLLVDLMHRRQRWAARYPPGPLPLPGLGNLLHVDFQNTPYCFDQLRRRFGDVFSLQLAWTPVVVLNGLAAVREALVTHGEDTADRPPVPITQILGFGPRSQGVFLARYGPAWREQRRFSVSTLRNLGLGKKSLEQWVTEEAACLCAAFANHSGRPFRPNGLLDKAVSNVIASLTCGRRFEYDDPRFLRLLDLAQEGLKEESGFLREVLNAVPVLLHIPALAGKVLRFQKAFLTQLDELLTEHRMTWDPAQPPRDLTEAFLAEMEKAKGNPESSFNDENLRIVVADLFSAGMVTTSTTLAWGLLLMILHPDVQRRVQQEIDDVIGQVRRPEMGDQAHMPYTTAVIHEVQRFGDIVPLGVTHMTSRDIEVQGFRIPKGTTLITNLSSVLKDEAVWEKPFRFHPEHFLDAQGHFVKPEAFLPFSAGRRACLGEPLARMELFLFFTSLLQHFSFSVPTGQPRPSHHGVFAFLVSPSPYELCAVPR

[10] = system: INS1; assay: beta cell apoptosis inhibitors, cytokine rescue, dose response, luminescence, retest (AID 449756); format: functional, cell-based; conditions: Rattus norvegicus;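 also: cell death triggered by IL-1 beta plus TNF-alpha plus IFN-gamma mixture; protective hits raise ATP signal compared with cytokine alone wells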
[11] = inhibitors of intracellular T. cruzi replication, confirmation, NIH3T3 host cells, beta-gal luminescence (AID 2044); format: functional, cell-based;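 also: intracellular parasites grown in NIH/3T3 mouse fibroblasts as host cells; luminescent beta-galactosidase reporter signal from transgenic T. cruzi replicating inside host cells; inhibitors lower the luminescence signal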
[12] = cytotoxicity toward NIH3T3 fibroblasts, dose response, counter-screen, cell-based, ATP luminescence, mouse fibroblasts (AID 2010); format: functional;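 also: cells exposed to compound for about 90 hours before reading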

Sequence of Cytochrome P450 2C9 (P11712 whole entry): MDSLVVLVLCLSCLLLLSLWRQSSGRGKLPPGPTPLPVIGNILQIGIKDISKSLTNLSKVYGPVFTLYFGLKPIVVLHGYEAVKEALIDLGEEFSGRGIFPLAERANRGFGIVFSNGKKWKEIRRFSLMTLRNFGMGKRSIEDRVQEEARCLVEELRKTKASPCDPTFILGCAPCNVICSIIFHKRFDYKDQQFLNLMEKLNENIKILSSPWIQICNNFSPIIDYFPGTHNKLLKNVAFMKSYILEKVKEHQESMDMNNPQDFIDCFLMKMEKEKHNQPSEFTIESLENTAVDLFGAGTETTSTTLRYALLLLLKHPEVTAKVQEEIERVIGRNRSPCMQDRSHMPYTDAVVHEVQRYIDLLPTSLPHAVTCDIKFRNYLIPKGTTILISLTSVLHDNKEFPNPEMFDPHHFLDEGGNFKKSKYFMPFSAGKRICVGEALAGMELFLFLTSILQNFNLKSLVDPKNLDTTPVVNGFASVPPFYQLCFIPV
Sequence of Cytochrome P450 3A4 (P08684 whole entry): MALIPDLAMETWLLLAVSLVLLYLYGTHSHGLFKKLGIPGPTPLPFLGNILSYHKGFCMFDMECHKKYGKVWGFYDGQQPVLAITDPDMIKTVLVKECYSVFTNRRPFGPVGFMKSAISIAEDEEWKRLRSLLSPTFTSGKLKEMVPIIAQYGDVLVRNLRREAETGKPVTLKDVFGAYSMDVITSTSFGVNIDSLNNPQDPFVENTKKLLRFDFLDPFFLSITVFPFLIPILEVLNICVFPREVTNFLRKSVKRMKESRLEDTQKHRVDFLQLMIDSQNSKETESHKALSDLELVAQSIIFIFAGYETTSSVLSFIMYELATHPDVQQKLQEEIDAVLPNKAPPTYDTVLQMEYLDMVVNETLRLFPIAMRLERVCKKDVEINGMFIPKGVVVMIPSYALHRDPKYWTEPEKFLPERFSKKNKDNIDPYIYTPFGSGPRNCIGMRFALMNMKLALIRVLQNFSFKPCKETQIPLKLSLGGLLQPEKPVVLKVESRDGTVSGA

## Cc1noc(C)c1C(=O)N1CCC2(CCCN(c3ccncc3)C2)CC1
[1]
  AC50: 31.6 µM (inconclusive)

## Cc1cccc(N(NC(=O)C(C)(C)O)C(=O)c2ccccc2)c1
[1]
  AC50: 17.8 µM (inconclusive)
[2]
  AC50: 39.8 µM (inconclusive)

## CC(C)c1nc2oc3c(NCc4ccccn4)ncnc3c2c2c1COC(C)(C)C2
[3]
  EC50: 33 µM (active)
[4]
  EC50: > 120 µM (not active)
[5]
  EC50: 16.7 µM (active)

## Cc1c(C)c2ccc(OS(C)(=O)=O)c(C)c2oc1=O
[6]
  CC50: > 50 µM (active)

## C1=C(c2ccccc2)CCN(c2nc3ccccc3n3cnnc23)C1
[7]
  IC50: > 79 µM (inactive)

## CO[C@H]1COC(=O)[C@H](C)COC(=O)[C@@H](Cc2ccccc2)NC(=O)C/C=C\[C@H]1C
[1]
  AC50: 6.31 µM (inconclusive)

## COc1cccc(Nc2nc(N)nc(C(F)(F)F)n2)c1
[6]
  CC50: 20.4 µM (active)

## CC(C)N(Cc1ccccc1)C(=O)COC(=O)/C=C/c1cnc2ccccc2n1
[8]
  EC50: 23 µM (active)

## O=C(COC(=O)Cn1[nH]c(=O)c2ccccc2c1=O)NNC(=O)c1ccccc1
[7]
  IC50: > 79 µM (inactive)

## COc1ccc(CNC(=O)COc2cc3c(c4oc(=O)cc(C)c24)CCC(C)(C)O3)cc1OC
[6]
  CC50: > 50 µM (active)

## COc1ccc(NC(=O)C(=O)NCC(c2ccco2)N2CCc3ccccc32)cc1 (stereo unspecified)
[3]
  EC50: 104 µM (active)
[4]
  EC50: 0.127 µM (active)
[5]
  EC50: 0.11 µM (active)

## NCCNS(=O)(=O)c1ccc(N)cc1
[1]
  AC50: 5.01 µM (inconclusive)

## CCCC[C@@H]1C[C@H]1C(NC(=O)Cc1ccccc1)c1ccc(Cl)cc1 (stereo partly specified)
[9]
  AC50: 7.94 µM (inconclusive)
[2]
  AC50: 1.26 µM (inconclusive)

## CC(C)[C@H](N)c1nnc(SC/C=C/c2ccccc2)o1
[9]
  AC50: 35.5 µM (inconclusive)
[2]
  AC50: 0.0562 µM (inconclusive)

## c1ccc2oc(C3=NCCN3)cc2c1
[9]
  AC50: 39.8 µM (inconclusive)

## CC(C)(C)C(=O)NC(Nc1cccc2cccnc12)C(Cl)(Cl)Cl (stereo unspecified)
[10]
  AC50: 23.6 µM (active)
[9]
  AC50: 15.8 µM (inconclusive)
[1]
  AC50: 7.08 µM (inconclusive)

## Oc1cc(O)cc(/C=C\c2ccc(O)c(O)c2)c1
[1]
  AC50: 20 µM (inconclusive)
[2]
  AC50: 31.6 µM (inconclusive)

## COc1ccc(NC(=O)CSc2nc(N)c3cc4c(nc3n2)CCCC4)cc1
[8]
  EC50: 53.3 µM (active)

## Cc1cc(/C=C(/C#N)c2cccc(Cl)c2)c(C)n1C
[8]
  EC50: > 260 µM (inactive)

## Cc1cccc(N/N=C(\C=O)C(=O)c2ccc(Br)cc2)c1
[8]
  EC50: > 260 µM (inactive)

## O=S(=O)(c1ccccc1)N1CCCC(c2nc(O)c3nnn(Cc4ccc5c(c4)OCCO5)c3n2)C1 (stereo unspecified)
[6]
  CC50: 16.9 µM (active)

## Cc1cc(N2CCN(C)CC2)ccc1NC(=O)c1cccc(S(=O)(=O)N2CCc3ccccc3C2)c1
[3]
  EC50: 9.2 µM (active)
[4]
  EC50: > 120 µM (not active)
[5]
  EC50: > 120 µM (not active)
[11]
  EC50: 1.43 µM (active)
[12]
  EC50: 8.5 µM (active)

## CCCCCSc1nc2c(c(=O)[nH]c(=O)n2C)n1C(C)C
[3]
  EC50: > 120 µM (not active)
[4]
  EC50: 16.5 µM (active)
[5]
  EC50: 12.5 µM (active)

## Cc1ccc(OCC(=O)N2CCN(c3ccc([N+](=O)[O-])c(N4CCOCC4)c3)CC2)cc1
[9]
  AC50: 12.6 µM (inconclusive)

## Cc1cccc(OC2CCN(Cc3nc(CC4CC4)no3)CC2)c1
[3]
  EC50: > 120 µM (not active)
[4]
  EC50: > 120 µM (not active)
[5]
  EC50: 55.7 µM (active)

## Nc1nc(SC/C=C\c2ccccc2)c2nc[nH]c2n1
[9]
  AC50: 3.16 µM (inconclusive)
[2]
  AC50: 3.98 µM (inconclusive)

## O=C(CSc1nnc(-c2ccccc2)c(-c2ccccc2)n1)N1CCc2ccccc21
[8]
  EC50: > 260 µM (inactive)
